The subject of this assay is SN12K1 renal. In words: NCI-60 cell line screen, 48 h.

The text below walks through data of PubChem BioAssay (NCI).

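Test compounds were applied to cells in 96-well plates for 48 hours at 5 doses. Definition used: TGI = concentration required for complete inhibition of growth.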

In turn, `CS(=O)(=O)OCCCNCCCOS(C)(=O)=O` showed a TGI of 2.32 mM.
